Columns and labels:
chickweed [1] = assay: Test Example 5: herbicidal effect by foliage application, plastic box (Table 20, symbol P); format: in vivo, common chickweed (Stellaria media); details: foliage application, 320 g/ha, evaluated three weeks after application
Procedure, shortened: (§1)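 Sow seeds spot-wise in sterilized diluvial soil; cover with ~1.5 cm soil. Grow 14 days in greenhouse, 25° C. to 30° C. Spray foliage with emulsion diluted to predetermined amount. Rate effect after 3 weeks.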

redroot pigweed [2] = assay: Test Example 5: herbicidal effect by foliage application, plastic box (Table 20, symbol N); format: in vivo, redroot pigweed (Amaranthus retroflexus); details: foliage application, 320 g/ha, evaluated three weeks after application
Procedure, shortened: as §1

persian speedwell [3] = assay: Test Example 4: herbicidal effect by soil treatment (Table 19, symbol R); format: in vivo, Persian speedwell (Veronica persica)
Procedure, shortened: (§2)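 Soil-surface application: an emulsion agent diluted with water to the predetermined dose is sprayed uniformly over seeds lying under roughly 1.5 cm of sterilized diluvial soil. Boxes stay in a greenhouse at 25° C. to 30° C. Three weeks later, each species is graded on previously defined criteria.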

windgrass [4] = assay: Test Example 4: herbicidal effect by soil treatment (Table 19, symbol L); format: in vivo, windgrass (Apera spica-venti)
Procedure, shortened: as §2

chickweed [5] = assay: Test Example 4: herbicidal effect by soil treatment (Table 19, symbol P); format: in vivo, common chickweed (Stellaria media)
Procedure, shortened: as §2

green foxtail [6] = assay: Test Example 5: herbicidal effect by foliage application, plastic box (Table 20, symbol G); format: in vivo, green foxtail (Setaria viridis); details: foliage application, 320 g/ha, evaluated three weeks after application
Procedure, shortened: as §1

windgrass [7] = assay: Test Example 5: herbicidal effect by foliage application, plastic box (Table 20, symbol L); format: in vivo, windgrass (Apera spica-venti); details: foliage application, 320 g/ha, evaluated three weeks after application
Procedure, shortened: as §1

blackgrass [8] = assay: Test Example 5: herbicidal effect by foliage application, plastic box (Table 20, symbol J); format: in vivo, blackgrass (Alopecurus myosuroides); details: foliage application, 320 g/ha, evaluated three weeks after application
Procedure, shortened: as §1

lambsquarters [9] = assay: Test Example 5: herbicidal effect by foliage application, plastic box (Table 20, symbol O); format: in vivo, lambsquarters (Chenopodium album); details: foliage application, 320 g/ha, evaluated three weeks after application
Procedure, shortened: as §1

wild oat [10] = assay: Test Example 4: herbicidal effect by soil treatment (Table 19, symbol I); format: in vivo, wild oat (Avena fatua)
Procedure, shortened: as §2

oval-leafed pondweed = assay: Test Example 1: herbicidal activity, application before weed generation under submerged conditions (Table 16, symbol C); format: in vivo, oval-leafed pondweed (Monochoria vaginalis); details: 320 g/ha applied herbicide
Procedure, shortened: (§3)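 Submerged Wagner pots (alluvial soil, 4 cm water) sown with weed seeds and planted with 2.5-leaf rice seedlings; emulsifiable concentrate diluted in water applied to water surface on sowing day. Held in greenhouse at 25-30 °C; injury scored 0-5 by herbicidal rate after three weeks.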

Japanese bulrush = assay: Test Example 1: herbicidal activity, application before weed generation under submerged conditions (Table 16, symbol B); format: in vivo, Japanese bulrush (Schoenoplectus juncoides); details: 320 g/ha applied herbicide
Procedure, shortened: as §3

late watergrass = assay: Test Example 1: herbicidal activity, application before weed generation under submerged conditions (Table 16, symbol A); format: in vivo, late watergrass (Echinochloa oryzicola); details: 320 g/ha applied herbicide
Procedure, shortened: as §3

lambsquarters [11] = assay: Test Example 4: herbicidal effect by soil treatment (Table 19, symbol O); format: in vivo, lambsquarters (Chenopodium album)
Procedure, shortened: as §2

Italian ryegrass [12] = assay: Test Example 5: herbicidal effect by foliage application, plastic box (Table 20, symbol K); format: in vivo, Italian ryegrass (Lolium multiflorum); details: foliage application, 320 g/ha, evaluated three weeks after application
Procedure, shortened: as §1

southern crabgrass [13] = assay: Test Example 5: herbicidal effect by foliage application, plastic box (Table 20, symbol F); format: in vivo, southern crabgrass (Digitaria ciliaris); details: foliage application, 320 g/ha, evaluated three weeks after application
Procedure, shortened: as §1

rice flat sedge = assay: Test Example 3: herbicidal effect by foliage application, Wagner pot (Table 18, symbol E); format: in vivo, rice flat sedge (Cyperus iria); details: 320 g/ha
Procedure, shortened: (§4)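 Plants were sown in alluvial soil held under 0.1–0.5 cm standing water and grown 14 days in a greenhouse at 25–30 °C. An emulsifiable formulation, water-diluted to the set dose, was then sprayed onto the foliage, and effects were scored three weeks later using previously defined criteria.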

Chinese sprangletop = assay: Test Example 3: herbicidal effect by foliage application, Wagner pot (Table 18, symbol D); format: in vivo, chinese sprangletop (Leptochloa chinensis); details: 320 g/ha
Procedure, shortened: as §4

wild oat [14] = assay: Test Example 5: herbicidal effect by foliage application, plastic box (Table 20, symbol I); format: in vivo, wild oat (Avena fatua); details: foliage application, 320 g/ha, evaluated three weeks after application
Procedure, shortened: as §1

persian speedwell [15] = assay: Test Example 5: herbicidal effect by foliage application, plastic box (Table 20, symbol R); format: in vivo, Persian speedwell (Veronica persica); details: foliage application, 320 g/ha, evaluated three weeks after application
Procedure, shortened: as §1

velvetleaf [16] = assay: Test Example 4: herbicidal effect by soil treatment (Table 19, symbol M); format: in vivo, velvetleaf (Abutilon theophrasti)
Procedure, shortened: as §2

barnyard grass [17] = assay: Test Example 4: herbicidal effect by soil treatment (Table 19, symbol H); format: in vivo, barnyard grass (Echinochloa crus-galli)
Procedure, shortened: as §2

southern crabgrass [18] = assay: Test Example 4: herbicidal effect by soil treatment (Table 19, symbol F); format: in vivo, southern crabgrass (Digitaria ciliaris)
Procedure, shortened: as §2

barnyard grass [19] = assay: Test Example 5: herbicidal effect by foliage application, plastic box (Table 20, symbol H); format: in vivo, barnyard grass (Echinochloa crus-galli); details: foliage application, 320 g/ha, evaluated three weeks after application
Procedure, shortened: as §1

redroot pigweed [20] = assay: Test Example 4: herbicidal effect by soil treatment (Table 19, symbol N); format: in vivo, redroot pigweed (Amaranthus retroflexus)
Procedure, shortened: as §2

velvetleaf [21] = assay: Test Example 5: herbicidal effect by foliage application, plastic box (Table 20, symbol M); format: in vivo, velvetleaf (Abutilon theophrasti); details: foliage application, 320 g/ha, evaluated three weeks after application
Procedure, shortened: as §1

barnyard grass [22] = assay: Test Example 3: herbicidal effect by foliage application, Wagner pot (Table 18, symbol H); format: in vivo, barnyard grass (Echinochloa crus-galli); details: 320 g/ha
Procedure, shortened: as §4

blackgrass [23] = assay: Test Example 4: herbicidal effect by soil treatment (Table 19, symbol J); format: in vivo, blackgrass (Alopecurus myosuroides)
Procedure, shortened: as §2

green foxtail [24] = assay: Test Example 4: herbicidal effect by soil treatment (Table 19, symbol G); format: in vivo, green foxtail (Setaria viridis)
Procedure, shortened: as §2

Italian ryegrass [25] = assay: Test Example 4: herbicidal effect by soil treatment (Table 19, symbol K); format: in vivo, Italian ryegrass (Lolium multiflorum)
Procedure, shortened: as §2

[26] = amount of applied herbicide 320 g/ha

SMILES	herbicidal effect on P: chickweed (chickweed [1])	herbicidal effect on N: redroot pigweed (redroot pigweed [2])	herbicidal effect on G: green foxtail (green foxtail [6])	herbicidal effect on L: windgrass (windgrass [7])	herbicidal effect on J: blackgrass (blackgrass [8])	herbicidal effect on O: lambsquarters (lambsquarters [9])	Herbicidal effect on C: oval-leafed pondweed (grade 0-5) (oval-leafed pondweed)	Herbicidal effect on B: Japanese bulrush (grade 0-5) (Japanese bulrush)	Herbicidal effect on A: late watergrass (grade 0-5) (late watergrass)	herbicidal effect on K: Italian ryegrass (Italian ryegrass [12])	herbicidal effect on F: southern crabgrass (southern crabgrass [13])	herbicidal effect on E (rice flat sedge), rating 0-5 (rice flat sedge)	herbicidal effect on D (Chinese sprangletop), rating 0-5 (Chinese sprangletop)	herbicidal effect on I: wild oat (wild oat [14])	herbicidal effect on R: persian speedwell (persian speedwell [15])	herbicidal effect on H: barnyard grass (barnyard grass [19])	herbicidal effect on M: velvetleaf (velvetleaf [21])	herbicidal effect on H (barnyard grass), rating 0-5 (barnyard grass [22])	also measured
Cc1nn(C)c(=O)c(-c2c(-c3ccc(Cl)c(Cl)c3)sc3ccc(F)cc23)c1O [2-081]	5 (Herbicidal rate of 90% or more (almost completely withered))	5 (Herbicidal rate of 90% or more (almost completely withered))	5 (Herbicidal rate of 90% or more (almost completely withered))	5 (Herbicidal rate of 90% or more (almost completely withered))	2 (Herbicidal rate of 20% or more and less than 40%)	5 (Herbicidal rate of 90% or more (almost completely withered))	0 (Herbicidal rate of 5% or less (almost no effect))	2 (Herbicidal rate of 20% or more and less than 40%)	4 (Herbicidal rate of 70% or more and less than 90%)	5 (Herbicidal rate of 90% or more (almost completely withered))	4 (Herbicidal rate of 70% or more and less than 90%)	5 (Herbicidal rate of 90% or more (almost completely withered))	3 (Herbicidal rate of 40% or more and less than 70%)	4 (Herbicidal rate of 70% or more and less than 90%)	5 (Herbicidal rate of 90% or more (almost completely withered))	5 (Herbicidal rate of 90% or more (almost completely withered))	5 (Herbicidal rate of 90% or more (almost completely withered))	5 (Herbicidal rate of 90% or more (almost completely withered))	herbicidal effect rating, R: persian speedwell (persian speedwell [3]; 320 g/ha): 4 (Herbicidal rate of 70% or more and less than 90%); herbicidal effect rating, L: windgrass (windgrass [4]; 320 g/ha): 0 (Herbicidal rate of 5% or less (almost no effect)); herbicidal effect rating, P: chickweed (chickweed [5]; 320 g/ha): 3 (Herbicidal rate of 40% or more and less than 70%); herbicidal effect rating, I: wild oat (wild oat [10]; 320 g/ha): 0 (Herbicidal rate of 5% or less (almost no effect)); herbicidal effect rating, O: lambsquarters (lambsquarters [11]; 320 g/ha): 4 (Herbicidal rate of 70% or more and less than 90%); herbicidal effect rating, M: velvetleaf (velvetleaf [16]; 320 g/ha): 3 (Herbicidal rate of 40% or more and less than 70%); herbicidal effect rating, H: barnyard grass (barnyard grass [17]; 320 g/ha): 0 (Herbicidal rate of 5% or less (almost no effect)); herbicidal effect rating, F: southern crabgrass (southern crabgrass [18]; 320 g/ha): 0 (Herbicidal rate of 5% or less (almost no effect)); herbicidal effect rating, N: redroot pigweed (redroot pigweed [20]; 320 g/ha): 5 (Herbicidal rate of 90% or more (almost completely withered)); herbicidal effect rating, J: blackgrass (blackgrass [23]; 320 g/ha): 0 (Herbicidal rate of 5% or less (almost no effect)); herbicidal effect rating, G: green foxtail (green foxtail [24]; 320 g/ha): 0 (Herbicidal rate of 5% or less (almost no effect)); herbicidal effect rating, K: Italian ryegrass (Italian ryegrass [25]; 320 g/ha): 4 (Herbicidal rate of 70% or more and less than 90%)
Cc1nn(C)c(=O)c(-c2c(-c3ccc(OC(C)C)cc3)sc3ccc(Cl)cc23)c1O [2-107]	5 (Herbicidal rate of 90% or more (almost completely withered))	4 (Herbicidal rate of 70% or more and less than 90%)	4 (Herbicidal rate of 70% or more and less than 90%)	4 (Herbicidal rate of 70% or more and less than 90%)	3 (Herbicidal rate of 40% or more and less than 70%)	3 (Herbicidal rate of 40% or more and less than 70%)	0 (Herbicidal rate of 5% or less (almost no effect))	0 (Herbicidal rate of 5% or less (almost no effect))	2 (Herbicidal rate of 20% or more and less than 40%)	0 (Herbicidal rate of 5% or less (almost no effect))	3 (Herbicidal rate of 40% or more and less than 70%)	2 (Herbicidal rate of 20% or more and less than 40%)	0 (Herbicidal rate of 5% or less (almost no effect))	0 (Herbicidal rate of 5% or less (almost no effect))	5 (Herbicidal rate of 90% or more (almost completely withered))	4 (Herbicidal rate of 70% or more and less than 90%)	3 (Herbicidal rate of 40% or more and less than 70%)	4 (Herbicidal rate of 70% or more and less than 90%)	R: persian speedwell, herbicidal effect rating (persian speedwell [3]; [26]): 5 (Herbicidal rate of 90% or more (almost completely withered)); L: windgrass, herbicidal effect rating (windgrass [4]; [26]): 0 (Herbicidal rate of 5% or less (almost no effect)); P: chickweed, herbicidal effect rating (chickweed [5]; [26]): 0 (Herbicidal rate of 5% or less (almost no effect)); I: wild oat, herbicidal effect rating (wild oat [10]; [26]): 0 (Herbicidal rate of 5% or less (almost no effect)); O: lambsquarters, herbicidal effect rating (lambsquarters [11]; [26]): 0 (Herbicidal rate of 5% or less (almost no effect)); M: velvetleaf, herbicidal effect rating (velvetleaf [16]; [26]): 0 (Herbicidal rate of 5% or less (almost no effect)); H: barnyard grass, herbicidal effect rating (barnyard grass [17]; [26]): 0 (Herbicidal rate of 5% or less (almost no effect)); F: southern crabgrass, herbicidal effect rating (southern crabgrass [18]; [26]): 0 (Herbicidal rate of 5% or less (almost no effect)); N: redroot pigweed, herbicidal effect rating (redroot pigweed [20]; [26]): 0 (Herbicidal rate of 5% or less (almost no effect)); J: blackgrass, herbicidal effect rating (blackgrass [23]; [26]): 0 (Herbicidal rate of 5% or less (almost no effect)); G: green foxtail, herbicidal effect rating (green foxtail [24]; [26]): 0 (Herbicidal rate of 5% or less (almost no effect)); K: Italian ryegrass, herbicidal effect rating (Italian ryegrass [25]; [26]): 0 (Herbicidal rate of 5% or less (almost no effect))

Reference: patent US20230085307A1, “PYRIDAZINONE COMPOUND AND HERBICIDE” (NISSAN CHEMICAL CORPORATION, priority 2019, published 2023)
